Results reported in patent publication US20240383904A1, “HETEROCYCLIC COMPOUNDS” (Hoffmann-La Roche Inc., priority 2021, published 2024).

Biological target: T1, MAGL (Homo sapiens, UniProt Q99685)
T1 sequence (Q99685 1-303): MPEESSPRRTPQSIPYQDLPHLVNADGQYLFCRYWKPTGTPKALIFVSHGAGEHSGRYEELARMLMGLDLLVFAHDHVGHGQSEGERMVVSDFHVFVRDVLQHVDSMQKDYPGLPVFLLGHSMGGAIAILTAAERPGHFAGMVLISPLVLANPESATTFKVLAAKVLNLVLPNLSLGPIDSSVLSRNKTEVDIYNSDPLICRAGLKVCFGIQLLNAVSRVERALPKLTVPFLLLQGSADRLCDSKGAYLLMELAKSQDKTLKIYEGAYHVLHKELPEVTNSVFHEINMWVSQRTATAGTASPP
Assay: 2-AG assay: MAGL inhibitory activity by hydrolysis of 2-arachidonoylglycerol to arachidonic acid, followed by mass spectrometry
Format: biochemical
Conditions: 15 min preincubation, 30 min reaction at RT, 8 μM 2-arachidonoylglycerol
Excerpt: Compounds of formula (I) were profiled for MAGL inhibitory activity by determining the enzymatic activity by following the hydrolysis of the natural substrate 2-arachidonoylglycerol (2-AG) resulting in arachidonic acid, which can be followed by mass spectrometry. This assay is hereinafter abbreviated “2-AG assay”.
Compounds of formula (I) were profiled for MAGL inhibitory activity by determining the enzymatic activity by following the hydrolysis of the natural substrate 2-arachidonoylglycerol (2-AG) resulting in arachidonic acid, which can be followed by mass spectrometry. This assay is hereinafter abbreviated “2-AG assay”. The 2-AG assay was carried out in 384 well polypropylene assay plates. Compound dilutions were made in 100% DMSO in a polypropylene plate in 3-fold dilution steps to give a final concentration range in the assay from 12.5 μM to […]. Compound dilutions were added to MAGL protein in assay buffer (50 mM TRIS, 1 mM EDTA, 0.01% (v/v) Tween-20, 2.5% (v/v) DMSO). After shaking, the plate was incubated for 15 min at RT. To start the reaction, 2-arachidonoylglycerol in assay buffer was added. The final concentrations in the assay was […] for MAGL protein and 8 μM 2-arachidonoylglyerol. After shaking and 30 min incubation at RT, the reaction was quenched by the addition of two assay volumes of acetonitrile containing 4 μM of d8-arachidonic acid. The amount of arachidonic acid formed was traced by an online SPE system (Agilent Rapidfire) coupled to a triple quadrupole mass spectrometer. A C18 SPE cartridge (Agilent G9205A) was used in an acetonitrile/water liquid setup. The mass spectrometer was operated in negative electrospray mode following the mass transitions 303.1→259.1 for arachidonic acid and 311.1→267.0 for d8-arachidonic acid. The activity of the compounds was calculated based on the ratio of intensities [arachidonic acid/d 8-arachidonic acid].

Compound: O=C1NC2(CO1)CN(C(=O)N1CC3(C1)CN(c1ncc(C(F)(F)F)cn1)C3)C2 [Example 207, 2-[6-[5-(trifluoromethyl)pyrimi-din-2-yl]-2,6-diazaspiro[3.3]heptane-2-carbonyl]-7-oxa-2,5-diazaspiro[3.4]octan-6-one]
- IC50: 414 nM

Compound: O=C1CCCC2(CN(C(=O)N3CC4(CC(Cc5cc(C(F)(F)F)n[nH]5)C4)C3)C2)N1 [Example 278, 2-[6-[[3-(trifluoromethyl)-1H-pyrazol-5-y1]methyl]-2-azaspiro[3.3]heptane-2-carbonyl]-2,5-diazaspiro[3.5]nonan-6-one]
- IC50: 479 nM

Compound: CC(C)(C)c1ncc(CN2CC3(C2)CN(C(=O)N2CC4(CCC(=O)N4)C2)C3)s1 [Example 331, 2-[6-[(2-tert-butylthiazol-5-yl)methyl]-2,6-diazaspiro[3.3]heptane-2-carbonyl]-2,5-diazaspiro[3.4]octan-6-one]
- IC50: 45.2 nM

Compound: O=C1CCCC2(CN(C(=O)N3CC4(CC(Cc5ccc(S(=O)(=O)C6CC6)cc5)C4)C3)C2)N1 [Example 269, 2-[6-[(4-cyclopropylsulfonylphe-nyl)methyl]-2-azaspiro[3.3]heptane-2-carbonyl]-2,5-diazaspiro[3.5]nonan-6-one]
- IC50: 473 nM

Compound: O=C1CCC2(CN(C(=O)N3CC4(CN(Cc5snnc5C5CC5)C4)C3)C2)N1 [Example 345, 2-[6-[(4-cyclopropylthiadiazol-5-yl)methyl]-2,6-diazaspiro[3.3]heptane-2-carbonyl]-2,5-diazaspiro[3.4]octan-6-one]
- IC50: 3330 nM

Compound: O=C1NC2(CO1)CN(C(=O)N1CC3(CC(Cc4ncc(C(F)(F)F)cc4F)C3)C1)C2 [Example 28, 2-[6-[[3-fluoro-5-(trifluoromethyl)-2-pyridyl]methyl]-2-azaspiro[3.3]heptane-2-carbonyl]-7-oxa-2,5-diazaspiro[3.4]octan-6-one]
- IC50: 0.23 nM

Compound: CNC(=O)c1ccccc1CN1CC2(C1)CN(C(=O)N1CC3(COC(=O)N3)C1)C2 [Example 201, N-methyl-2-[[2-(6-oxo-7-oxa-2,5-diazaspiro[3.4]octane-2-carbonyl)-2,6-diazaspiro[3.3]heptan-6-yl]methyl]benzamide]
- IC50: 165 nM

Compound: O=C1NC2(CO1)CN(C(=O)N1CC3(CC(c4ccc(S(=O)(=O)C(F)(F)F)cc4)C3)C1)C2 [Example 48, 2-[6-(4-triflylphenyl)-2-azaspiro[3.3]heptane-2-carbonyl]-7-oxa-2,5-diazaspiro[3.4]octan-6-one]
- IC50: 0.15 nM

Compound: O=C1NC2(CO1)CN(C(=O)N1CC3(C1)CN(S(=O)(=O)c1cccc(OC(F)(F)F)c1)C3)C2 [Example 192, 2-[2-[3-(trifluoromethoxy)phenyl]sulfonyl-2,6-diazaspiro[3.3]heptane-6-carbonyl]-7-oxa-2,5-diazaspiro[3.4]octan-6-one]
- IC50: 14.7 nM

Compound: O=C1CCCC2(CN(C(=O)N3CC4(CN(Cc5ccc(S(=O)(=O)C(F)(F)F)cc5F)C4)C3)C2)N1 [Example 267, 2-[6-[[2-fluoro-4-(trifluoromethylsulfonyl)phenyl]methyl]-2,6-diazaspiro[3.3]heptane-2-carbonyl]-2,5-diazaspiro[3.5]nonan-6-one]
- IC50: 1240 nM

Compound: O=C1NC2(CO1)CN(C(=O)N1CC3(CCC(Oc4cc(Cl)ccc4Cl)CC3)C1)C2 [Example 106, 2-[7-(2,5-dichlorophenoxy)-2-azaspiro[3.5]nonane-2-carbonyl]-7-oxa-2,5-diazaspiro[3.4]octan-6-one]
- IC50: 0.05 nM

Compound: O=C1CCC2(CN(C(=O)N3CC4(CCC(S(=O)(=O)c5ccc(C(F)(F)F)cc5)CC4)C3)C2)N1 [Example 281, 2-[7-[4-(trifluoromethyl)phenyl]sulfonyl-2-azaspiro[3.5]nonane-2-carbonyl]-2,5-diazaspiro[3.4]octan-6-one]
- IC50: 6.44 nM

Compound: O=C1COCC2(CN(C(=O)N3CC4(CCC(Cc5cnc(C(F)(F)F)cn5)CC4)C3)C2)N1 [Example 226, 2-[7-[[5-(trifluoromethyl)pyrazin-2-yl]methyl]-2-azaspiro[3.5]nonane-2-carbonyl]-8-oxa-2,5-diazaspiro[3.5]nonan-6-one]
- IC50: 45.9 nM

Compound: O=C1NC2(CO1)CN(C(=O)N1CC3(CC(Cc4ccc(C(F)(F)F)cn4)C3)C1)C2 [Example 354, 2-[6-[[5-(trifluoromethyl)-2-pyridyl]methyl]-2-azaspiro[3.3]heptane-2-carbonyl]-7-oxa-2,5-diazaspiro[3.4]octan-6-one]
- IC50: 0.28 nM

Compound: O=C1COCC2(CN(C(=O)N3CC4(CC(Cc5nc(C(F)(F)F)ns5)C4)C3)C2)N1 [Example 363, 2-[6-[[3-(trifluoromethyl)-1,2,4-thiadiazol-5-yl]methyl]-2-azaspiro[3.3]heptane-2-carbonyl]-8-oxa-2,5-diazaspiro[3.5]nonan-6-one]
- IC50: 54.9 nM

Compound: N=S(=O)(c1ccc(CC2CC3(C2)CN(C(=O)N2CC4(CCC(=O)N4)C2)C3)cc1)C(F)(F)F (stereo not shown) [Example 2, 2-[6-[4-(trifluoromethylsulfoni-midoyl)benzyl]-2-azaspiro[3.3]heptane-2-carbonyl]-2,5-diazaspiro[3.4]octan-6-one]
- IC50: 2.15 nM

Compound: O=C1CCC2(CN(C(=O)N3CC4(CC(Oc5ncc(F)cc5Cl)C4)C3)C2)N1 [Example 313, 2-[6-[(3-chloro-5-fluoro-2-pyridyl)oxy]-2-azaspiro[3.3]heptane-2-carbonyl]-2,5-diazaspiro[3.4]octan-6-one]
- IC50: 27.8 nM

Compound: Cn1nc(C(F)(F)F)cc1CN1CCC2(CC1)CN(C(=O)N1CC3(CCC(=O)N3)C1)C2 [Example 337, 2-[7-[[2-methyl-5-(trifluoromethyl)pyrazol-3-yl]methyl]-2,7-diazaspiro[3.5]nonane-2-carbonyl]-2,5-diazaspiro[3.4]octan-6-one]
- IC50: 160 nM

Compound: O=C1CCC2(CN(C(=O)N3CC4(CCC(Cc5ncc(F)cc5F)CC4)C3)C2)N1 [Example 125, 2-[7-[(3,5-difluoro-2-pyridyl)methyl]-2-azaspiro[3.5]nonane-2-carbonyl]-2,5-diazaspiro[3.4]octan-6-one]
- IC50: 5.81 nM

Compound: O=C1NC2(CCO1)CN(C(=O)N1CC3(CC(Cc4cnc(C(F)(F)F)cn4)C3)C1)C2 [Example 43, 2-[6-[[5-(trifluoromethyl)pyrazin-2-yl]methyl]-2-azaspiro[3.3]heptane-2-carbonyl]-7-oxa-2,5-diazaspiro[3.5]nonan-6-one]
- IC50: 646 nM

Compound: O=C1NC2(CO1)CN(C(=O)N1CC3(CC(NC4(C(F)(F)F)CC4)C3)C1)C2 [Example 65, 2-[6-[[1-(trifluoromethyl)cyclopro-pyl]amino]-2-azaspiro[3.3]heptane-2-carbonyl]-7-oxa-2,5-diazaspiro[3.4]octan-6-one]
- IC50: 1.85 nM

Compound: O=C1CCC2(CN(C(=O)N3CC4(CC(Cn5cnc(C(F)(F)F)c5)C4)C3)C2)N1 [Example 59, 2-[6-[[4-(trifluoromethyl)imidazol-1-yl]methyl]-2-azaspiro[3.3]heptane-2-carbonyl]-2,5-diazaspiro[3.4]octan-6-one]
- IC50: 36.6 nM

Compound: CS(=O)(=O)c1cc(C(F)(F)F)ccc1CC1CC2(C1)CN(C(=O)N1CC3(COC(=O)N3)C1)C2 [Example 27, 2-[6-[2-mesy1-4-(trifluoromethyl)benzyl]-2-azaspiro[3.3]heptane-2-carbonyl]-7-oxa-2,5-diazaspiro[3.4]octan-6-one]
- IC50: 0.14 nM

Compound: O=C1NC2(CO1)CN(C(=O)N1CC3(CCC(Oc4cnc(C(F)(F)F)cn4)CC3)C1)C2 [Example 69, 2-[7-[5-(trifluoromethyl)pyrazin-2-yl]oxy-2-azaspiro[3.5]nonane-2-carbonyl]-7-oxa-2,5-diazaspiro[3.4]octan-6-one]
- IC50: 0.83 nM

Compound: O=C1CCC2(CN(C(=O)N3CC4(CCN(Cc5cc(C(F)(F)F)on5)CC4)C3)C2)N1 [Example 338, 2-[7-[[5-(trifluoromethyl)isoxazol-3-yl]methyl]-2,7-diazaspiro[3.5]nonane-2-carbonyl]-2,5-diazaspiro[3.4]octan-6-one]
- IC50: 178 nM

Compound: O=C1NC2(CO1)CN(C(=O)N1CC3(CC(OCC4(C(F)(F)F)CC4)C3)C1)C2 [Example 64, 2-[6-[[1-(trifluoromethyl)cyclopro-pyl]methoxy]-2-azaspiro[3.3]heptane-2-carbonyl]-7-oxa-2,5-diazaspiro[3.4]octan-6-one]
- IC50: 1.28 nM

Compound: O=C1COCC2(CN(C(=O)N3CC4(CC(Cc5cccc(S(=O)(=O)C(F)(F)F)c5)C4)C3)C2)N1 [Example 182, 2-[6-[[3-(trifluoromethylsulfonyl)phenyl]methyl]-2-azaspiro[3.3]heptane-2-carbonyl]-8-oxa-2,5-diazaspiro[3.5]nonan-6-one]
- IC50: 485 nM

Compound: O=C1NC2(CO1)CN(C(=O)N1CC3(CC(Cc4ccc(F)cn4)C3)C1)C2 [Example 31, 2-[6-[(5-fluoro-2-pyridyl)methyl]-2-azaspiro[3.3]heptane-2-carbonyl]-7-oxa-2,5-diazaspiro[3.4]octan-6-one]
- IC50: 0.61 nM
